From patent publication US20210379035A1, “Methods Of Treating Fabry Patients Having Renal Impairment” (Amicus Therapeutics, Inc., priority 2017, published 2021)
Read-outs that look alike come from different tables or passages of the source.

Columns and labels:
[1] = system: GL-3 inclusions per kidney interstitial capillary; assay: ERT-naïve study: kidney interstitial capillary GL-3 inclusions; format: in vivo, human
Protocol: In the ERT-naïve study, the primary efficacy parameter was GL-3 inclusions per kidney interstitial capillary. Renal function was also evaluated by mGFRiohexol, eGFRCKD-EPI and eGFRMDRD.

Fabry patients [2] = assay: eGFR (MDRD) in Fabry patient P1; format: in vivo, human; conditions: P1 on migalastat, moderate impairment
Protocol: (§1) Thus, two Fabry patients with renal impairment were evaluated. One patient (P1) had moderate renal impairment, while the other patient (P2) had severe renal impairment. […] The comparison with the results from the ERT-naïve study allows for comparison of PK in the Fabry population with mostly normal, but some mild and a few moderately impaired Fabry patients. None of the patients in the ERT-naïve study had severe renal impairment because these patients were excluded from the study.

[3] = Plasma migalastat concentration in two Fabry patients with renal impairment (Example 3); format: in vivo, human; conditions: for concentration at 3 h: 3 Hrs Post
Protocol: as §1

[4] = Single-dose renal impairment PK and safety study in non-Fabry subjects (Example 1); format: in vivo, human
Protocol: The eGFR was estimated by the Cockcroft-Gault equation per the FDA Guidance for renal impairment studies.
Volunteers were enrolled into two cohorts stratified for renal function calculated using the Cockcroft-Gault equation for creatinine clearance (CLCR). Subjects were assigned to groups based on an estimated CLCR at screening as calculated using the Cockcroft-Gault equation.
Subjects were grouped according to degree of renal dysfunction: mild (CLCR≥60 and <90 mL/min), moderate (CLCR≥30 and <60 mL/min), or severe (CLCR≥15 and <30 mL/min)

Fabry patients [5] = assay: ERT-naïve study: renal function (eGFR); format: in vivo, human; conditions: for Annualized Change in eGFRCKD-EPI, mean ± SE: ERT-Naïve; for mean±SEM annualized rate of change of eGFRCKD-EPI: ERT-naïve study, baseline to 18/24 months
Protocol: One study was a 24-month trial, including a 6-month double-blind, placebo-controlled period, in 67 ERT-naïve patients. The other study was an active-controlled, 18-month trial in 57 ERT-experienced patients with a 12-month open-label extension (OLE). Both the ERT-naïve and ERT-experienced studies included Fabry patients having an eGFR of ≥30 mL/min/1.73 m^2. The study designs for these studies are shown in FIGS. 10A-B. In the ERT-naïve study, the primary efficacy parameter was GL-3 inclusions per kidney interstitial capillary. […] A further analysis of data from these studies examined annualized change in […], WBC α-Gal A activity and plasma lyso-Gb3 levels based on renal function at baseline. The results for each renal subgroup are shown in Table 9 below, with the ERT-naïve study subgroups based on […] and the ERT-experienced study subgroups based on mGFRiohexol.

α-Gal A = biological target: T1, α-Gal A (Homo sapiens, UniProt P06280); conditions: selective and reversible binding; cited from earlier work
T1 sequence (P06280 32-429): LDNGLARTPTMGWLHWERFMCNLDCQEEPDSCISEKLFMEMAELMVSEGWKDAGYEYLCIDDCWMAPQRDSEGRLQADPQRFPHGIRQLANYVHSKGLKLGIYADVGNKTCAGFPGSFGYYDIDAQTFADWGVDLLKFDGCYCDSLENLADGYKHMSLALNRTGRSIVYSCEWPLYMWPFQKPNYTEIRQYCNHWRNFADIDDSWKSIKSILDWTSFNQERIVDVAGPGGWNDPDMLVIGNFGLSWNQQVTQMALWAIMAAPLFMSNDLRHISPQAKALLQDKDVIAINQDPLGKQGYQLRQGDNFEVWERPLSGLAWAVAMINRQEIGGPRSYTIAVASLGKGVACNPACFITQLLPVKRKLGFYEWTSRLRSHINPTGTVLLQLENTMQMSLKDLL

plasma lyso-GB3 = assay: ERT-experienced study: plasma lyso-Gb3; format: in vivo, human; conditions: Migalastat 0-18 months
Protocol: One study was a 24-month trial, including a 6-month double-blind, placebo-controlled period, in 67 ERT-naïve patients. The other study was an active-controlled, 18-month trial in 57 ERT-experienced patients with a 12-month open-label extension (OLE). Both the ERT-naïve and ERT-experienced studies included Fabry patients having an eGFR of ≥30 mL/min/1.73 m^2.
A further analysis of data from these studies examined annualized change in eGFRCKD-EPI, LVMi, WBC α-Gal A activity and plasma lyso-Gb3 levels based on renal function at baseline. The results for each renal subgroup are shown in Table 9 below, with the ERT-naïve study subgroups based on eGFRMDRD and the ERT-experienced study subgroups based on mGFRiohexol.

[6] = P1, second measurement set 6 months after the first
[7] = human, plasma, oral, 150 mg, single 150 mg migalastat HCl, non-Fabry, Mild (N = 8)
[8] = human, plasma, oral, 150 mg, single 150 mg migalastat HCl, non-Fabry, Moderate (N = 8)
[9] = human, plasma, oral, 150 mg, single 150 mg migalastat HCl, non-Fabry, Normal (N = 8)
[10] = human, plasma, oral, 150 mg, single 150 mg migalastat HCl, non-Fabry, Severe (N = 8)

- increase of C48 concentration [3, 6]: 49%
- increase of Cmax [3, 6]: 33%
- concentration at 3 h ([3]; human, plasma, Migalastat Conc 6 months later, Fabry patient P1, moderate renal impairment): 2160 ng/mL
- concentration at 24 h ([3]; human, plasma, Migalastat Conc 6 months later, Fabry patient P1, moderate renal impairment, 24 Hrs Post): 211 ng/mL
- concentration at 48 h ([3]; human, plasma, Migalastat Conc 6 months later, Fabry patient P1, moderate renal impairment, 48 Hrs Post): 62.4 ng/mL
- concentration at 3 h ([3]; human, plasma, Migalastat Conc, Fabry patient P1, moderate renal impairment): 1620 ng/mL
- concentration at 24 h ([3]; human, plasma, Migalastat Conc, Fabry patient P1, moderate renal impairment, 24 Hrs Post): 168 ng/mL
- concentration at 48 h ([3]; human, plasma, Migalastat Conc, Fabry patient P1, moderate renal impairment, 48 Hrs Post): 41.8 ng/mL
- concentration at 2 h ([3]; human, plasma, Migalastat Concentration, Fabry patient P2, severe renal impairment, 2 h, Occasion 1): 564 ng/mL
- concentration at 24 h ([3]; human, plasma, Migalastat Concentration, Fabry patient P2, severe renal impairment, 24 h, Occasion 2): 569 ng/mL
- concentration at 48 h ([3]; human, plasma, Migalastat Concentration, Fabry patient P2, severe renal impairment, 48 h, Occasion 1): 322 ng/mL
- concentration at 48 h ([3]; human, plasma, Migalastat Concentration, Fabry patient P2, severe renal impairment, 48 h, Occasion 2): 260 ng/mL
Structure (SMILES): OC[C@H]1NC[C@H](O)[C@@H](O)[C@H]1O [migalastat, (2R,3S,4R,5S)-2-(hydroxymethyl) piperdine-3,4,5-triol]
- change in kidney interstitial capillary GL-3 inclusions ([1]; baseline to month 6, eGFR<60 mL/min/1.73 m^2, n=3): −0.39
- change in kidney interstitial capillary GL-3 inclusions ([1]; baseline to month 6, eGFR≥60 mL/min/1.73 m^2, n=22): −0.30
- eGFRMDRD (Fabry patients [2]): 32 mL/min
- concentration at 3 h ([4]; human, plasma, oral, 150 mg, Comparison to Example 1 Moderate Impairment (migalastat concentration), non-Fabry, moderate impairment, 3 Hrs Post): 1870 ng/mL
- concentration at 24 h ([4]; human, plasma, oral, 150 mg, Comparison to Example 1 Moderate Impairment (migalastat concentration), non-Fabry, moderate impairment, 24 Hrs Post): 239 ng/mL
- concentration at 48 h ([4]; human, plasma, oral, 150 mg, Comparison to Example 1 Moderate Impairment (migalastat concentration), non-Fabry, moderate impairment, 48 Hrs Post): 64.5 ng/mL
- concentration at 2 h ([4]; human, plasma, oral, 150 mg, Comparison to Example 1 Severe Impairment (migalastat concentration), non-Fabry, severe impairment, 2 h): 1550 ng/mL
- concentration at 24 h ([4]; human, plasma, oral, 150 mg, Comparison to Example 1 Severe Impairment (migalastat concentration), non-Fabry, severe impairment, 24 h): 770 ng/mL
- concentration at 48 h ([4]; human, plasma, oral, 150 mg, Comparison to Example 1 Severe Impairment (migalastat concentration), non-Fabry, severe impairment, 48 h): 334 ng/mL
- AUC(0-inf) [4, 7]: 14500 ng·h/mL
- AUC(0-t) [4, 7]: 14400 ng·h/mL
- Cmax [4, 7]: 2190 ng/mL
- concentration at 48 h ([4]; human, plasma, oral, 150 mg, single 150 mg migalastat HCl, non-Fabry, Mild (N = 8), read-out: C48): 9.34 ng/mL
- half-life ([4]; human, plasma, oral, 150 mg, single 150 mg migalastat HCl, non-Fabry, Mild (N = 8), read-out: t1/2 (converted)): 7.66 h
- AUC(0-inf) [4, 8]: 22500 ng·h/mL
- AUC(0-t) [4, 8]: 22100 ng·h/mL
- Cmax [4, 8]: 1870 ng/mL
- Tmax [4, 8]: 3 h
- concentration at 48 h ([4]; human, plasma, oral, 150 mg, single 150 mg migalastat HCl, non-Fabry, Moderate (N = 8), read-out: C48): 64.5 ng/mL
- half-life ([4]; human, plasma, oral, 150 mg, single 150 mg migalastat HCl, non-Fabry, Moderate (N = 8), read-out: t1/2 (converted)): 22.2 h
- AUC(0-inf) [4, 9]: 12400 ng·h/mL
- AUC(0-t) [4, 9]: 12300 ng·h/mL
- Cmax [4, 9]: 2100 ng/mL
- concentration at 48 h ([4]; human, plasma, oral, 150 mg, single 150 mg migalastat HCl, non-Fabry, Normal (N = 8), read-out: C48): 5.7 ng/mL
- half-life ([4]; human, plasma, oral, 150 mg, single 150 mg migalastat HCl, non-Fabry, Normal (N = 8), read-out: t1/2 (converted)): 6.42 h
- AUC(0-inf) [4, 10]: 56200 ng·h/mL
- AUC(0-t) [4, 10]: 53100 ng·h/mL
- Cmax [4, 10]: 2080 ng/mL
- Tmax [4, 10]: 4.27 h
- concentration at 48 h ([4]; human, plasma, oral, 150 mg, single 150 mg migalastat HCl, non-Fabry, Severe (N = 8), read-out: C48): 334 ng/mL
- half-life ([4]; human, plasma, oral, 150 mg, single 150 mg migalastat HCl, non-Fabry, Severe (N = 8), read-out: t1/2 (converted)): 32.3 h
- half-life ([4]; human, plasma, po, 150 mg, single oral 150 mg migalastat HCl, mild renal impairment, read-out: t1/2 in plasma, arithmetic mean [min, max] (converted)): 7.7 h
- half-life ([4]; human, plasma, po, 150 mg, single oral 150 mg migalastat HCl, moderate renal impairment, read-out: t1/2 in plasma, arithmetic mean [min, max] (converted)): 22.2 h
- half-life ([4]; human, plasma, po, 150 mg, single oral 150 mg migalastat HCl, normal renal function, read-out: t1/2 in plasma, arithmetic mean [min, max] (converted)): 6.4 h
- half-life ([4]; human, plasma, po, 150 mg, single oral 150 mg migalastat HCl, severe renal impairment, read-out: t1/2 in plasma, arithmetic mean [min, max] (converted)): 32.3 h
- Plasma migalastat concentration ([4]; non-Fabry, moderate impairment, Pre-dose (0 h), same value as 48 h): 64.5 ng/mL
- CL/F ([4]; single 150 mg migalastat HCl, non-Fabry, Mild (N = 8)): 10.3 L/h
- CL/F ([4]; single 150 mg migalastat HCl, non-Fabry, Moderate (N = 8)): 6.68 L/h
- CL/F ([4]; single 150 mg migalastat HCl, non-Fabry, Normal (N = 8)): 12.1 L/h
- CL/F ([4]; single 150 mg migalastat HCl, non-Fabry, Severe (N = 8)): 2.67 L/h
- Incidence of adverse events ([4]; single 150 mg migalastat HCl, all renal function groups): comparable across all renal function groups
- increase of mean plasma migalastat AUC0-∞ compared to healthy control subjects ([4]; single oral 150 mg migalastat HCl, mild renal impairment): 1.2 fold
- increase of mean plasma migalastat AUC0-∞ compared to healthy control subjects ([4]; single oral 150 mg migalastat HCl, moderate renal impairment): 1.8 fold
- increase of mean plasma migalastat AUC0-∞ compared to healthy control subjects ([4]; single oral 150 mg migalastat HCl, severe renal impairment): 4.5 fold
- Annualized Change in eGFRCKD-EPI, mean ± SE (Fabry patients [5]; Migalastat→Migalastat 0-24 months, renal subgroup 30 to < 60): +3.2 ± 1.1 mL/min/1.73 m^2
- Annualized Change in eGFRCKD-EPI, mean ± SE (Fabry patients [5]; Migalastat→Migalastat 0-24 months, renal subgroup ≥60): −0.7 ± 0.6 mL/min/1.73 m^2
- Annualized Change in eGFRCKD-EPI, mean ± SE (Fabry patients [5]; Placebo→Migalastat 6-24 months, renal subgroup 30 to < 60): −2.8 ± 2.8 mL/min/1.73 m^2
- Annualized Change in eGFRCKD-EPI, mean ± SE (Fabry patients [5]; Placebo→Migalastat 6-24 months, renal subgroup ≥60): +0.1 ± 0.7 mL/min/1.73 m^2
- mean±SEM annualized rate of change of eGFRCKD-EPI (Fabry patients [5]; mild renal impairment): −0.8±1.01 mL/min/1.73 m^2/year
- mean±SEM annualized rate of change of eGFRCKD-EPI (Fabry patients [5]; moderate renal impairment): −0.7±3.97 mL/min/1.73 m^2/year
- mean±SEM annualized rate of change of eGFRCKD-EPI (Fabry patients [5]; normal renal function): 0.2±0.90 mL/min/1.73 m^2/year
- binding to the active site of wild-type α-Gal A and specific mutant forms of α-Gal A (α-Gal A): high affinity
- Plasma lyso-Gb3, change from baseline, mean (plasma lyso-GB3; renal subgroup 30 to < 60): +0.5 nmol/L
- Plasma lyso-Gb3, change from baseline, mean (plasma lyso-GB3; renal subgroup ≥60): 1.9 nmol/L
